# Experimental data: US8357694B2, “Substituted 5,6-dihydro-6-phenylbenzo[F]isoquinolin-2-amine compounds” (ArQule, Inc., priority 2008, dated 2013)
# Where “and” joins values, the source holds several entries; their conditions need not be identical. Equal values may be shown once. Where a name gives a salt, the structure may show the parent alone. Read-outs that look alike come from different tables or passages of the source.
# Assays:
# A549 = test: combination cytotoxicity, A549; format: cell-based; details: in combination with (3R,4R)-3-(5,6-dihydro-4H-pyrrolo[3,2,1-ij]quinolin-1-yl)-4-(1H-indol-3-yl)pyrrolidine-2,5-dione
# Source text: (§1) The combination data of (R)-6-(2-fluorophenyl)-N-(3-(2-(4-(2-methoxyethyl)piperazin-1-yl)ethyl)phenyl)-5,6-dihydrobenzo[h]quinazolin-2-amine with a kinase inhibitor (3R,4R)-3-(5,6-dihydro-4H-pyrrolo[3,2,1-ij]quinolin-1-yl)-4-(1H-indol-3-yl)pyrrolidine-2,5-dione is shown in Table 28. The identity and tissue origin of cancer cell lines are indicated.
# CALU-6 = test: combination cytotoxicity, CALU-6; format: cell-based; details: in combination with (3R,4R)-3-(5,6-dihydro-4H-pyrrolo[3,2,1-ij]quinolin-1-yl)-4-(1H-indol-3-yl)pyrrolidine-2,5-dione
# Source text: as §1
# Kato III cells = test: cell cycle profile by FACS analyses; format: cell-based
# Experimental: Kato III cells were treated with example 159, or FGFR2 siRNA. Cell cycle profiles were assessed by FACS analyses (FIG. 3).
# RT4 [1] = test: combination cytotoxicity, RT4; format: cell-based; details: in combination with (3R,4R)-3-(5,6-dihydro-4H-pyrrolo[3,2,1-ij]quinolin-1-yl)-4-(1H-indol-3-yl)pyrrolidine-2,5-dione
# Source text: as §1
# LS174T = test: combination cytotoxicity, LS174T; format: cell-based; details: in combination with (3R,4R)-3-(5,6-dihydro-4H-pyrrolo[3,2,1-ij]quinolin-1-yl)-4-(1H-indol-3-yl)pyrrolidine-2,5-dione
# Source text: as §1
# FGFR2 in SNU-16 = test: FGFR2 phosphorylation by immunoblotting, SNU-16; format: cell-based; details: 0.3 μM to 10 μM for 2 h, then KGF stimulation for 15 min
# Experimental: (§2) Cells whose growth rely on FGFR2 as determined in Example 585 such as KATO III and SNU-16, were treated with increasing concentration of example 159, from 0.3 μM to 10 μM for 2 h, followed by stimulation with […] of KGF for 15 min.
# RT112 [2] = test: combination cytotoxicity, RT112; format: cell-based; details: in combination with (3R,4R)-3-(5,6-dihydro-4H-pyrrolo[3,2,1-ij]quinolin-1-yl)-4-(1H-indol-3-yl)pyrrolidine-2,5-dione
# Source text: as §1
# SNU-16 [3] = test: combination cytotoxicity, SNU-16; format: cell-based; details: in combination with (3R,4R)-3-(5,6-dihydro-4H-pyrrolo[3,2,1-ij]quinolin-1-yl)-4-(1H-indol-3-yl)pyrrolidine-2,5-dione
# Source text: as §1
# DU4475 = test: combination cytotoxicity, DU4475; format: cell-based; details: in combination with (3R,4R)-3-(5,6-dihydro-4H-pyrrolo[3,2,1-ij]quinolin-1-yl)-4-(1H-indol-3-yl)pyrrolidine-2,5-dione
# Source text: as §1
# [4] = tested on: SNU-16, Ba/F3-FGFR2 or Ba/F3 INSR tumors; test: tumor growth in xenograft models; format: in vivo; details: subcutaneous tumors in nude mice; orally dosed once daily
# Experimental: (A) Tumor from cancer cells SNU-16, Ba/F3-FGFR2 or Ba/F3 INSR were established subcutaneously in nude mice. Tumor growth in nude mice orally dosed with the indicated dose of example 159, or vehicle control was determined. All regimens were administered once daily for the indicated number of days. Tumor sizes were evaluated periodically during treatment and are represented as the mean of tumor volume in mm3±SEM (n=10) (FIGS. 4A-C). Phosphorylation of FGFR2 (D) or ERK (E) was assessed for cells from tumors harvested at the indicated time points after a single oral administration of 250 mg/kg of Example 159 by immunohistochemistry.
# FGFR2 in KATO III = test: FGFR2 phosphorylation by immunoblotting, KATO III; format: cell-based; details: 0.3 μM to 10 μM for 2 h, then KGF stimulation for 15 min
# Experimental: as §2
# CAKI-2 = test: combination cytotoxicity, CAKI-2; format: cell-based; details: in combination with (3R,4R)-3-(5,6-dihydro-4H-pyrrolo[3,2,1-ij]quinolin-1-yl)-4-(1H-indol-3-yl)pyrrolidine-2,5-dione
# Source text: as §1
# THP-1 = test: combination cytotoxicity, THP-1; format: cell-based; details: in combination with (3R,4R)-3-(5,6-dihydro-4H-pyrrolo[3,2,1-ij]quinolin-1-yl)-4-(1H-indol-3-yl)pyrrolidine-2,5-dione
# Source text: as §1
# RT112 [5] = test: MTS cell kill assay, RT112; format: cell-based; details: Homo sapiens, RT-112, RT112
# Experimental: (§3) Cells were maintained at 37° C., 5% CO2 in DMEM media supplemented with 1% fetal bovine serum, penicillin/streptomycin and fungizone (Invitrogen). Cells were seeded into 96-well tissue culture plates at 3000 per well and cultured at 37° C. for 18 hours. Test compounds were dissolved and diluted to 300× in DMSO then diluted 1:40 in DMEM.
# AN3-CA = test: MTS cell kill assay, AN3-CA; format: cell-based; details: Homo sapiens
# Experimental: as §3
# SNU-16 [6] = test: MTS assay, SNU-16; format: cell-based; details: Homo sapiens
# Experimental: as §3
# RT4 [7] = test: MTS cell kill assay, RT4; format: cell-based; details: Homo sapiens, RT-4, RT4
# Experimental: as §3
# FGFR2 kinase = target: T1, FGFR2 kinase (Homo sapiens, UniProt P21802, N549H); test: fluorescent ELISA FGFR2 kinase assay (biochemical)
# T1 construct: purchased Millipore 14-742
# T1 sequence (P21802 456-770 N549H limits assumed): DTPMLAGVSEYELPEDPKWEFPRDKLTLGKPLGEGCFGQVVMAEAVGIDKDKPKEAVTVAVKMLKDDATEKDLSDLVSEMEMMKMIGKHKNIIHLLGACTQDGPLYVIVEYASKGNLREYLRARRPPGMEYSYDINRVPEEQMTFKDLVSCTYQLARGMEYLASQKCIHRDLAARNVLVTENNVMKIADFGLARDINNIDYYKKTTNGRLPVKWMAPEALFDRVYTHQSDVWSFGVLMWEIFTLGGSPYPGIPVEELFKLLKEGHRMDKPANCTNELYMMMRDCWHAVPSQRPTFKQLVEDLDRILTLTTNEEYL
# Experimental: The enzymatic assays described herein are conducted according to the following procedures from commercially available reagents. In one, non limiting, example, a fluorescent ELISA assay is used to identify and characterize inhibitors of FGFR2 kinase as described herein. This heterogeneous assay utilizes a biotinylated peptide with a tyrosine motif as a substrate and an anti-phospho-tyrosine antibody to measure phosphorylation of the substrate. […] The reaction is incubated for 60 minutes. As the reaction proceeds, FGFR2 phosphorylates tyrosines in the peptide. […] Peptides are captured for 30 minutes at room temperature, the phosphorylation of peptides continues during this phase. The reaction is stopped by washing the streptavidin-coated plate 6 times with TBST. […] Unbound anti-phospho-tyrosine antibody is removed by washing the streptavidin-coated plate 6 times with TBST. […] Unbound secondary antibody is removed by washing the streptavidin-coated plate 6 times with TBST.
# KATO III [8] = test: in vitro PD assay, KATO III; format: cell-based; details: Homo sapiens
# KATO III [9] = test: MTS assay, KATO III; format: cell-based; details: Homo sapiens, read-out: MTS IC50
# Experimental: as §3
# Ba/F3 parental cells = test: MTS assay, Ba/F3 parental; details: Mus musculus, BaF3, read-out: MTS IC50
# Experimental: as §3
# SNU-16 [10] = test: in vitro PD assay, SNU-16; format: cell-based; details: Homo sapiens
# [11] = SNU-16, SNU-16, read-out: MTS cell kill data (IC50-μM) SNU-16
# [12] = FGFR2 (N549H), read-out: Biochemical data (IC50-μM) FGFR2 (N549H)
SMILES,IC50 (RT112 [5]) [µM],IC50 (AN3-CA) [µM],IC50 (SNU-16 [6]; [11]) [µM],IC50 (RT4 [7]) [µM],IC50 (FGFR2 kinase; [12]),also measured
"COCCN1CCN(CCc2cccc(Nc3ncc4c(n3)-c3ccccc3[C@H](c3ccccc3F)C4)c2)CC1 [(R)-6-(2-fluorophenyl)-N-(3-(2-(4-(2-methoxyethyl)piperazin-] [(R)-6-(2-fluorophenyl)-N-(3-(2-(4-(2-methoxyethyl)piperazin-1-yl)ethyl)phenyl)-5,6-dihydrobenzo[h]quinazolin-2-amine]",–,–,–,–,–,combination cytotoxicity (A549): additive cytotoxicity; combination cytotoxicity (CALU-6): additive cytotoxicity; cell cycle profile (Kato III cells): arrest of KATO III cells in G1 phase; combination cytotoxicity (RT4 [1]): additive cytotoxicity; combination cytotoxicity (LS174T): additive cytotoxicity; amount of phosphorylated FGFR2 (FGFR2 in SNU-16): inhibition of autophosphorylation of FGFR2; combination cytotoxicity (RT112 [2]): additive cytotoxicity; combination cytotoxicity (SNU-16 [3]): additive cytotoxicity; combination cytotoxicity (DU4475): additive cytotoxicity; tumor growth in xenograft models [4]: inhibition of tumor growth; amount of phosphorylated FGFR2 (FGFR2 in KATO III): inhibition of autophosphorylation of FGFR2; combination cytotoxicity (CAKI-2): additive cytotoxicity; combination cytotoxicity (THP-1): additive cytotoxicity
"COCCNCc1cccc(Nc2ncc3c(n2)-c2ccccc2[C@H](c2ccccc2F)C3)c1 [Example 178, (R)-6-(2-fluorophenyl)-N-(3-((2-methoxyethylamino)methyl)phenyl)-5,6-dihydrobenzo[h]quinazolin-2-amine hydrochloride]",2.68,1.77,0.711,4.28,0.0255 µM,–
"Fc1ccccc1[C@@H]1Cc2cnc(Nc3cccc(CCN4CCNCC4)c3)nc2-c2ccccc21 [Example 163, (R)-6-(2-fluorophenyl)-N-(3-(2-(piperazin-1-yl)ethyl)phenyl)-5,6-dihydrobenzo[h]quinazolin-2-amine]",1.19,1.39,0.894,1.38,0.0511 µM,melting point: 165 to 167 °C
"CN1CCN(CCc2cc(Nc3ncc4c(n3)-c3ccccc3[C@H](c3ccccc3F)C4)ccc2F)CC1 [Example 174, (R)-N-(4-fluoro-3-(2-(4-methylpiperazin-1-yl)ethyl)phenyl)-6-(2-fluorophenyl)-5,6-dihydrobenzo[h]quinazolin-2-amine hydrochloride salt]",1.52,2,1.16,3.54,0.0433 µM,–
"COCCN1CCN(CCc2cccc(Nc3ncc4c(n3)-c3ccccc3[C@H](c3ccccc3F)C4)c2)CC1 [Example 159, (R)-6-(2-fluorophenyl)-N-(3-(2-(4-(2-methoxyethyl)piperazin-1-yl)ethyl)phenyl)-5,6-dihydrobenzo[h]quinazolin-2-amine]",–,–,–,–,0.00714 µM and 0.0523 µM,"IC50 (KATO III [8]): 0.1 µM; IC50 (KATO III [9]): 0.1 µM; IC50 (Ba/F3 parental cells): 70 µM; IC50 (SNU-16 [10]): 0.2 µM; IC50 (SNU-16 [6]; SNU-16, SNU-16, read-out: MTS IC50): 1 µM; IC50 (FGFR2 kinase; read-out: Biochemical IC50): 0.0004 µM"
"CN1CCN(CCc2cccc(Nc3ncc4c(n3)-c3ccccc3[C@H](c3ccccc3F)C4)c2)CC1 [Example 161, (R)-6-(2-fluorophenyl)-N-(3-(2-(4-methylpiperazin-1-yl)ethyl)phenyl)-5,6-dihydrobenzo[h]quinazolin-2-amine hydrochloride]",0.627,0.738,0.397,1.47,0.0174 µM,–
"COCCN1CCN(CCc2cccc(Nc3ncc4c(n3)-c3ccccc3[C@@H](c3ccccc3F)C4)c2)CC1 [Example 164, (S)-6-(2-fluorophenyl)-N-(3-(2-(4-(2-methoxyethyl)piperazin-1-yl)ethyl)phenyl)-5,6-dihydrobenzo[h]quinazolin-2-amine]",1.51,1.38,1.34,2.97,0.047 µM,–
"COCCN1CCN(CCc2cc(Nc3ncc4c(n3)-c3ccccc3[C@H](c3ccccc3F)C4)ccc2F)CC1 [Example 175, (R)-N-(4-fluoro-3-(2-(4-(2-methoxyethyl)piperazin-1-yl)ethyl)phenyl)-6-(2-fluorophenyl)-5,6-dihydrobenzo[h]quinazolin-2-amine hydrochloride salt]",1.54,2.39,1.04,2.97,0.0443 µM,–
"COCCN1CCN(CCc2ccc(Nc3ncc4c(n3)-c3ccccc3[C@H](c3ccccc3F)C4)cc2)CC1 [Example 66, (R)-6-(2-fluorophenyl)-N-(4-(2-(4-(2-methoxyethyl)piperazin-1-yl)ethyl)phenyl)-5,6-dihydrobenzo[h]quinazolin-2-amine hydrochloride]",–,0.361,1.28,1.55,0.014 µM,–
"CCN(CC)CCNC(=O)c1c(C)[nH]c(/C=C2\C(=O)Nc3ccc(F)cc32)c1C [Sunitinib, reference compound]",–,–,–,–,–,"IC50 (KATO III [8]): 1.6 µM; IC50 (KATO III [9]): 0.3 µM; IC50 (SNU-16 [10]): 4.3 µM; IC50 (SNU-16 [6]; SNU-16, read-out: MTS IC50): 1.1 µM"
